Laboratory results: US20240299393A1, “SMALL MOLECULE DISRUPTORS OF PROTEIN INTERACTIONS IN HISTONE DEACETYLASE COMPLEXES” (Dana-Farber Cancer Institute, Inc., priority 2021, published 2024)

Tests used:
[1] = tested on: CDKN1A, SOCS3, EGR1 in SK-N-BE(2)-C cells; assay: RT-qPCR of SIN3 HDAC complex-regulated genes in neuroblastoma cells; format: cell-based, human; settings: 100 μM for 16 h
Experimental: The RT-qPCR protocol used in this study was described elsewhere [Choi et al 2012]. Culture, RNA extraction, and compound treatments for neuroblastoma SK-N-BE(2)-C cells are described below. Approximately 1 μg RNA per sample was used for reverse transcription. Using a thermocycler, RNA was denatured in the presence of 0.2 μg 18 mer oligo-dT by heating the plate at 65° C. for 10 min. The plate was then immediately cooled down on ice to anneal oligo-dT on the poly-A tail of mRNA. A master mix of AffinityScript Multiple Temperature Reverses Transcriptase (Agilent, cat #600107) was prepared following the manufacturer's protocol, and mixed with RNA samples previously annealed with the oligo-dT. The plate was incubated at 42° C. for 2 h to generate cDNAs from mRNA templates. The reverse transcriptase was then denatured by heating the plate at 70° C. for 15 min. The resulting cDNA was diluted (1:20) in sterile, ultra pure water (ddH2O), and stored at −20° C. until used for qPCR. To measure gene expression, the diluted cDNA was mixed with 5 μL PowerUp SYBR Green master mix (Applied Biosystems, cat #A25743), and the mix of primers (forward+reverse, see FIG. 31; 0.3 μM final concentration) for a total volume of 10 μL. Two technical replicates were generated per cDNA sample in the 384-well PCR plate (Applied Biosystems, cat #4343370). The plate was tightly sealed with optical adhesive film (Applied Biosystems, cat #4311971). Quantitative PCR was conducted with a QuantStudio real-time PCR system from Applied Biosystems, with the following settings: 50° C./2 min, 95° C./10 min, 96° C./15 s/40 cycles, and 60° C./30 s. Dissociation curves were checked for each PCR product, to assess the specificity of the PCR amplicons.
SK-N-BE(2)-C cells were maintained in cell culture flasks supplemented with 10% Fetal bovine serum (FBS) and penicillin/streptomycin (PS) in Dulbecco's Modified Eagle's Medium (DMEM). The cells were maintained at a log phase in a humidified 5% CO2 incubator at 37° C. For testing the effect of the compounds on gene expression, approximately 0.1 million cells were seeded on each well of 24-well cell culture plates, with 1 mL 10% FBS+PS+DMEM. 24 h after seeding the cells, they were exposed to the compounds or DMSO control for 16 h in a humidified 5% CO2 incubator at 37° C., before harvesting them.
Cells were harvested for RNA extraction using Nucleospin 96 RNA (Macherey-Nagel, cat #740709.4) following manufacturer's protocol. Briefly, supernatant was removed, and the cells were gently washed with 1× phosphate-buffered saline. 300 μL lysis buffer were added to each well of 24 well cell culture plates. Roughly 0.1 million cells were used for harvesting each RNA sample. RNA concentration was measured for all purified RNA samples using a nanodrop spectrophotometer.

[2] = tested on: SK-N-BE(2)-C neuroblastoma cells; assay: Matrigel cell invasion assay; format: cell-based, human; settings: FIG. 39A
Experimental: SK-N-BE(2)C neuroblastoma cells were seeded at 5×10^4 cells per well density in a 24-well plate. Cells were treated for five days with compounds or with DMSO control in Dulbecco's Modified Eagle Medium containing 10% fetal bovine serum, penicillin and streptomycin, in quadruplicate. On Day five, cells were changed to serum-free medium with the same compound concentrations as during the 5-day treatment, and 50,000 cells were seeded on top of a Corning BioCoat Matrigel Invasion Chamber (cat #354480). Medium with 20% FBS was added as chemoattractant to the bottom of the well. Invasion assay was performed per manufacturer instructions. After 48 h, non-invading cells were removed by scrubbing with a cotton tip swab. Cells that remained inside the matrix were stained with 1% crystal violet dye and counted by eye. Percentage of invasive cells was calculated relative to DMSO control.

Row | SMILES | effect on expression of CDKN1A, SOCS3 and EGR1 [1] | migration of neuroblastoma cells in the invasion assay [2]
1 | C[C@@H](NC(=O)c1c(O)n2ccccc2nc1=O)c1ccccc1 [E6R, 4-hydroxy-2-oxo-N—((R)-1-phenylethyl)-3,4-dihydro-2H-pyrido[, 2-a]pyrimidine-3-carboxamide] | only perturbed expression of two of the tested downstream genes | significantly reduce
2 | CC(/C=C/C(=O)NO)=C\[C@@H](C)C(=O)c1ccc(N(C)C)cc1 [TSA, trichostatin A] | derepressed | significantly reduce
